Test results reported in patent EP0908457B1, “3-(1,2-benzisothiazol- and isoxazol-5-Y1)-2,4(1H,3H)-pyrimidinedione or thione and 3-(1,2-benzisothiazol- and isoxazol-5-y1)-4(3H)-pyrimidinone or thione herbicidal agents” (BASF AKTIENGESELLSCHAFT, priority 1997, dated 1999).

How the values were obtained:
[1] = tested on: Cyperus serotinus, Rottb.; assay: Preemergence weed control under flooded paddy conditions, CYPSE (Flatsedge); assay type: in vivo; conditions: preemergence weeds, herbicidal effect rating 0-9, three to four weeks after treatment
[2] = tested on: Sagittaria pygmaea, L.; assay: Preemergence weed control under flooded paddy conditions, SAGPY (Arrowhead (Pygmaea)); assay type: in vivo; conditions: preemergence weeds, flooded paddy, herbicidal effect rating 0-9, three to four weeks after treatment
[3] = tested on: Oryza sativa, (L.) Tebonnet; assay: Rice tolerance to post-transplant applications under flooded paddy conditions (Example 187), ORYSAT (Rice, Tebonnet); conditions: herbicidal effect rating 0-9, three to four weeks after treatment
[4] = tested on: Cyperus iria; assay: Preemergence weed control under flooded paddy conditions, CYPIR (Rice Flatsedge); assay type: in vivo; conditions: preemergence weeds, flooded paddy, herbicidal effect rating 0-9, three to four weeks after treatment
[5] = tested on: Echinochloa oryzoides (Ard.) Fritsch.; assay: Preemergence weed control under flooded paddy conditions, ECHORC (Watergrass (Calif.)); assay type: in vivo; conditions: preemergence weeds, flooded paddy, herbicidal effect rating 0-9, three to four weeks after treatment
[6] = tested on: Monochoria vaginalis, Presl.; assay: Preemergence weed control under flooded paddy conditions, MOOVA (Monochoria); assay type: in vivo; conditions: preemergence weeds, flooded paddy, herbicidal effect rating 0-9, three to four weeks after treatment

Structure (SMILES)	SAGPY ([2]; 0.0320 kg/ha)	SAGPY ([2]; 0.0620 kg/ha)	SAGPY ([2]; 0.1250 kg/ha)	SAGPY ([2]; 0.2500 kg/ha)	ORYSAT ([3]; 0.0320 kg/ha)	ORYSAT ([3]; 0.0620 kg/ha)	ORYSAT ([3]; 0.1250 kg/ha)	ORYSAT ([3]; 0.2500 kg/ha)	CYPIR ([4]; 0.0320 kg/ha)	CYPIR ([4]; 0.0620 kg/ha)	CYPIR ([4]; 0.1250 kg/ha)	CYPIR ([4]; 0.2500 kg/ha)	ECHORC ([5]; 0.0320 kg/ha)	ECHORC ([5]; 0.0620 kg/ha)	ECHORC ([5]; 0.1250 kg/ha)	ECHORC ([5]; 0.2500 kg/ha)	MOOVA ([6]; 0.0320 kg/ha)	MOOVA ([6]; 0.0620 kg/ha)	MOOVA ([6]; 0.1250 kg/ha)	MOOVA ([6]; 0.2500 kg/ha)	also measured
CN(Cc1ccc(Cl)cc1)S(=O)(=O)NC(=O)c1nsc2ccc(-n3c(=O)cc(C(F)(F)F)n(C)c3=O)cc12 [Example 420, 1,2-Benzisothiazole-3-carboxamide, N-[(p-chlorobenzyl)methylsulfamoyl]-5-[3,6-dihydro-3-methyl-2,6-dioxo-4-(trifluoromethyl)-1(2H)-pyrimidinyl]-]	0.0	0.0	2.0	3.0	0.0	2.0	3.0	5.0	2.0	4.0	6.0	6.0	7.0	7.0	7.0	7.0	9.0	9.0	9.0	9.0	CYPSE ([1]; 0.2500 kg/ha): 0.0
Cn1c(C(F)(F)F)cc(=O)n(-c2ccc3snc(C(=O)SCc4ccccc4)c3c2)c1=O [Example 421, 1,2-Benzisothiazole-3-thiocarboxylic acid, 5-[3,6-dihydro-3-methyl-2,6-dioxo-4-(trifluoromethyl)-1(2H)-pyrimidinyl]-, S-benzyl ester]	0.0	0.0	0.0	2.0	0.0	0.0	0.0	2.0	2.0	6.0	8.0	9.0	5.0	5.0	7.0	9.0	5.0	6.0	7.0	9.0	CYPSE ([1]; 0.2500 kg/ha): 4.0
CCSC(=O)c1nsc2ccc(-n3c(=O)cc(C(F)(F)F)n(C)c3=O)cc12 [Example 422, 1,2-Benzisothiazole-3-thiocarboxylic acid, 5-[3,6-dihydro-3-methyl-2,6-dioxo-4-(trifluoromethyl)-1(2H)-pyrimidinyl]-, S-ethyl ester]	0.0	0.0	3.0	6.0	0.0	0.0	2.0	3.0	5.0	6.0	9.0	9.0	5.0	6.0	9.0	9.0	7.0	9.0	9.0	9.0	CYPSE ([1]; 0.0320 kg/ha): 0.0; CYPSE ([1]; 0.0620 kg/ha): 5.0
CCOC(=O)c1nsc2cc(F)c(-n3c(=O)cc(C(F)(F)F)n(C)c3=O)cc12 [Example 423, 1,2-Benzisothiazole-3-carboxylic acid, 5-[3,6-dihydro-3-methyl-2,6-dioxo-4-(trifluoromethyl)-1(2H)-pyrimidinyl]-6-fluoro-, ethyl ester]	9.0	9.0	9.0	9.0	5.0	6.0	7.0	7.0	6.0	7.0	9.0	9.0	6.0	9.0	9.0	9.0	9.0	9.0	9.0	9.0	CYPSE ([1]; 0.0320 kg/ha): 9.0; CYPSE ([1]; 0.0620 kg/ha): 9.0; CYPSE ([1]; 0.1250 kg/ha): 9.0; CYPSE ([1]; 0.2500 kg/ha): 9.0
Cc1ccc(OCC(=O)O)c(-c2noc3cc(F)c(-n4c(=O)cc(C(F)(F)F)n(C)c4=O)cc23)c1 [Example 425, Acetic acid, {{2-{5-[3,6-dihydro-3-methyl-2,6-dioxo-4-(trifluoromethyl)-1(2H)-pyrimidinyl]-6-fluoro-1,2-benzisoxazol-3-yl}-p-tolyl}oxy}-]	0.0	0.0	3.0	4.0	4.0	6.0	7.0	8.0	0.0	0.0	6.0	9.0	6.0	9.0	9.0	9.0	6.0	7.0	9.0	9.0	CYPSE ([1]; 0.0320 kg/ha): 0.0; CYPSE ([1]; 0.0620 kg/ha): 3.0; CYPSE ([1]; 0.1250 kg/ha): 3.0; CYPSE ([1]; 0.2500 kg/ha): 3.0
Cc1ccc(OCC(=O)NS(C)(=O)=O)c(-c2noc3cc(F)c(-n4c(=O)cc(C(F)(F)F)n(C)c4=O)cc23)c1 [Example 428, Acetamide, 2-{{2-{5-[3,6-dihydro-3-methyl-2,6-dioxo-4-(trifluoromethyl)-1(2H)-pyrimidinyl]-6-fluoro-1,2-benzisoxazol-3-yl}-p-tolyl}oxy}-N-(methylsulfonyl)-]	0.0	0.0	2.0	6.0	0.0	2.0	6.0	6.0	0.0	2.0	4.0	7.0	2.0	3.0	6.0	9.0	9.0	9.0	9.0	9.0	CYPSE ([1]; 0.0320 kg/ha): 0.0; CYPSE ([1]; 0.0620 kg/ha): 0.0
CN(c1ccc(-c2nsc3ccc(-n4c(=O)cc(C(F)(F)F)n(C)c4=O)cc23)cc1)S(C)(=O)=O [Example 430, Methanesulfonanilide, 4'-{5-[3,6-dihydro-3-methyl-2,6-dioxo-4-(trifluoromethyl)-1(2H)-pyrimidinyl]-1,2-benzisothiazol-3-yl}-N-methyl-]	–	–	6.0	7.0	3.0	2.0	4.0	3.0	2.0	6.0	7.0	6.0	5.0	5.0	7.0	9.0	9.0	9.0	9.0	9.0	CYPSE ([1]; 0.0320 kg/ha): 0.0; CYPSE ([1]; 0.0620 kg/ha): 0.0; CYPSE ([1]; 0.1250 kg/ha): 2.0; CYPSE ([1]; 0.2500 kg/ha): 7.0
COC(=O)COc1cc2c(cc1-c1nsc3ccc(-n4c(=O)cc(C(F)(F)F)n(C)c4=O)cc13)CCC2 [Example 434, Acetic acid, {{6-{5-[3,6-dihydro-3-methyl-2,6-dioxo-4-(trifluoromethyl)-1(2H)-pyrimidinyl]-1,2-benzisothiazol-3-yl}-5-indanyl}oxy}-, methyl ester]	4.0	4.0	5.0	6.0	4.0	6.0	6.0	7.0	3.0	3.0	7.0	8.0	6.0	7.0	7.0	9.0	9.0	9.0	9.0	9.0	CYPSE ([1]; 0.0320 kg/ha): 4.0; CYPSE ([1]; 0.1250 kg/ha): 4.0; CYPSE ([1]; 0.2500 kg/ha): 7.0
COC(=O)C(C)Oc1cc2c(cc1-c1nsc3ccc(-n4c(=O)cc(C(F)(F)F)n(C)c4=O)cc13)CCC2 (stereo not shown) [Example 435, Propionic acid, 2-{{6-{5-[3,6-dihydro-3-methyl-2,6-dioxo-4-(trifluoromethyl)-1(2H)-pyrimidinyl]-1,2-benzisothiazol-3-yl}-5-indanyl}oxy}-, methyl ester]	0.0	0.0	0.0	6.0	2.0	1.0	2.0	2.0	0.0	0.0	2.0	3.0	5.0	7.0	7.0	9.0	9.0	9.0	9.0	9.0	CYPSE ([1]; 0.0620 kg/ha): 0.0; CYPSE ([1]; 0.1250 kg/ha): 3.0; CYPSE ([1]; 0.2500 kg/ha): 2.0
